Columns and labels:
Assay type in all cases: in vivo
female Balb/c mice = assay: Arachidonic acid-induced ear swelling; settings: 100 μg/mouse IP 30 min prior to AA; 60 min after AA application
Protocol: Experiments were performed using female Balb/c mice weighing 18-23 grams. Saline or 100 μg EX-2 or EX-3 was administered IP, 30 min prior to topical application of arachidonic acid (AA). A 10 μl pipet was used to apply 10 μl AA solution (100 mg/ml ethanol; Calbiochem-Novabiochem; San Diego Calif.) to the inner and outer surfaces of the right ear of each mouse. Ten μl ethanol, alone, was applied to the inner and outer surface of the left ear of each mouse.
Ear thickness was measured with a hand-held spring loaded caliper immediately before and 60 min after AA application. Increase in ear thickness was calculated by subtracting the change observed in the control ear from the change observed in AA-treated ear. The value for each group (saline and control) is the average of the swelling observed in the individual mice in each group. The percent reduction of swelling is based on the swelling observed in the saline control group.

male Sprague-Dawley rats = assay: Streptozotocin-induced diabetes; settings: STZ 65 mg/kg iv; EX-2 150 μg/kg every 8 hr for 72 hr
Protocol: Male Sprague-Dawley rats were given 65 mg/kg of streptozotocin (STZ) intravenously through the tall vein. Rats were divided into two groups. The first group was administered EX-2, 150 μg/kg every 8 hr for 72 hr and the second group was a control. Blood samples were withdrawn under ether anesthesia every 8 hr for the first 72 hr, then every 12 hr or 24 hr until the end of the observation period. Plasma samples were assayed for glucose using a glucose assay kit (Trinder, Sigma Chemical Co.). As shown in Table VI below EX-2 effect a 72% reduction in blood glucose levels.

IL-6 = assay: Reduction of LPS-induced interleukin-6 levels in mice; settings: 300 μg/mouse; LPS treated mice; vs untreated control mice
Protocol: Balb/c mice were grouped and treated as described in Example III, above. Blood samples were obtained from the orbital sinus at various times up to six hr and serum was collected and diluted as described above. A 100 μl aliquot was assayed for IL-6 levels using an IL-6-specific ELISA by a modification of the method of Starnes et al., J. Immunol. 145:4185-4194 (1990), which is incorporated herein by reference.
The mean (±SEM) IL-6 level in six mice from each group was determined and the percent reduction in IL-6 was calculated.

[1] = test system: Adult male Sprague-Dawley rats; assay: Disuse deconditioning (tail suspension) in rats; settings: 1 or 5 μg/kg IP twice daily
Protocol: Adult male Sprague-Dawley rats (355-365 g) were used in this study. Animals were housed individually in standard rat cages and were acclimated on a treadmill for 4 days. The next day, a baseline tail bleed was performed, followed by a maximal treadmill stress test the day after. The day following the stress test, the animals were divided into the appropriate treatment and control groups and the animals were suspended by their tails in suspension cages, which simulates weightlessness and, therefore, deconditions the animals. Another group of control animals was placed in standard rat cages with grated flooring similar to that utilized in the suspension cages. All animals were housed one per cage and supplied with food and water ad libitum. Body weights and food consumptions were measured daily Animals received twice daily IP injections of 1 μg/kg or 5 μg/kg body weight of EX-2 (treated), or 1 ml/kg body weight of saline (control). On day 10, all animals were stress tested on the treadmill until they reached exhaustion. Data on maximum VO2 and running time were collected and compared to pre-suspension results. On day 14, all animals were sacrificed, and blood, tissues, and organs were collected for further analysis. All procedures and tests were performed blind to avoid researcher subjectivity. Statistical significance (p<0.05) between groups was evaluated by ANOVA with Student-Newman-Keuls test for multiple comparisons. All data are reported as the mean±standard error (SE).
All of the animals were subjected to the stress tests, which measured exercise time and maximal VO2. As well, levels of the oxidative enzyme soleus citrate synthase and tibia bone density were measured.
Soleus citrate synthase was attenuated by 50%.

Sprague-Dawley rats = assay: Renal ischemia-reperfusion injury; design: RVR (renal vascular resistance): unit not given here; settings: I/R + EX-2 (50 or 500 μg/kg iv before 1 hr clamping), after 60 min reperfusion
Protocol: Sprague-Dawley rats (250-300 g) were anesthetized with Inactin® (120 mg/kg). After deep anesthesia was assured, the rats were cannulated in the trachea with polyethylene (PE) tubing (PE 240), jugular vein, femoral artery, bladder (PE 50 for previous 3 cannulations), and left ureter (stretched PE 50). Once cannulation was completed, a 2 cm flank incision above the left kidney was performed and the renal pelvis and vascular bundle were exposed. The tissue surrounding the left renal artery was gently dissected away from the artery. The exposed renal artery was clamped for 1 hr using a small vascular cross-over clamp.
Just prior to clamping, EX-2 (50 or 500 μg/kg), ketorolac (KETO, 1 mg/kg), or vehicle was administered intravenously (iv) After 1 hr of clamping (ischemia), the clamp was gently removed with care taken to avoid damaging either the renal artery or nerves. An infusion of ^3 H-Inulin (NEN/Dupont; Wilmington, Del.), (0.6 μCi/ml in phosphate buffered saline (PBS)) (2 ml/hr) was initiated at a constant rate of […]. After 60 min of reperfusion, glomerular filtration rate (GFR), renal plasma flow (RPF) and renal vascular resistance (RVR) were assessed in two 30 min collection periods. The kidney was then removed for analysis. Sham operated and clamped rats served as controls for the above group. Contralateral renal function was utilized to determine the stability of the rat's renal function during the measured period.

Male Shelton rabbits = assay: Morphine-induced respiratory depression; settings: 10 + 20 + 20 μg/kg/rabbit iv; at end of experiment (80 min)
Protocol: Male Shelton rabbits (3-4 kg) were restrained and fitted around the thorax, just behind the front limbs, with a respiration transducer (Model F-RCT; Grass Instruments; Quincy Mass.). The transducer was connected to a grass polygraph via an EKG cable. An intravenous line was established for drug administration by cannulating the marginal ear vein using a 25G butterfly needle.
Rabbit breathing was allowed to stabilize, then. morphine sulfate (2 mg/kg in 0.5 ml saline) was administered by intravenous (iv) injection and respiratory rate and depth were monitored for 10 min. A second dose of morphine was administered, then, after 10 min, EX-2 or EX-3 (10 μg/kg in 0.5 ml saline) was administered, iv, and rabbits were monitored for 20 min. Two additional doses of EX-2 or EX-3 (20 μg/kg in 1.0 ml saline) were administered at 20 min intervals, i.e., 40 min and 60 min after the first morphine injection.
Results were calculated as the percent change from baseline values and are expressed as the difference of the mean value of the treated group minus the mean value of the control group at the end of the experiment (80 min).

Substance: Ac-Nle-Gln-His-(D)Phe-Arg-(D)Trp-Gly-NH2 [EX-2]
- Reduction in arachidonic acid-induced Ear Swelling (female Balb/c mice): 72%
- STZ Diabetes: Blood Glucose (mg/dl), % Reduction of induced increase (male Sprague-Dawley rats): 72%
- Reduction in IL-6 levels (IL-6): 60%
- Soleus Citrate Synthase, % Attenuation of suspension-induced decrease ([1]; 14 days suspension): 50%
- Tibia Bone Density, % Attenuation of suspension-induced decrease ([1]; 14 days suspension): 50%
- Exercise Time, % Attenuation of suspension-induced decrease ([1]; treadmill stress test day 10): 44%
- Maximal VO2, % Attenuation of suspension-induced decrease ([1]; treadmill stress test day 10): 80%
- GFR (glomerular filtration rate) (Sprague-Dawley rats; I/R + PBS 0.2 ± 0.1, Sham 1.0 ± 0.1): 0.5 ± 0.1
- RPF (renal plasma flow) (Sprague-Dawley rats; I/R + PBS 0.8 ± 0.2, Sham 4.2 ± 0.4): 2.3 ± 0.3
- RVR (renal vascular resistance) (Sprague-Dawley rats; I/R + PBS 6.6 ± 2.1, Sham 1.0 ± 0.1): 1.8 ± 0.2
- Reduction in Morphine-induced Respiratory Depression (Male Shelton rabbits): 50%
